# Publication PMC6204718, “GCDB: a glaucomatous chemogenomics database for in silico drug discovery” (Database: The Journal of Biological Databases and Curation, 2018)
# Where two headings read alike, the source gives them in different places.
# Key:
# [1] = target: T1, human A3AR (Homo sapiens, UniProt P0DMS8); test: A3AR cell-based functional assay (A3AR-mediated cAMP production, CHO-ADORA3 cells); details: for IC50: target A3AR, cAMP level of ADORA3-CHO cells elicited by NECA
# T1 construct: host or cells: CHO-K1 (CHO-ADORA3)
# T1 sequence (P0DMS8 1-318): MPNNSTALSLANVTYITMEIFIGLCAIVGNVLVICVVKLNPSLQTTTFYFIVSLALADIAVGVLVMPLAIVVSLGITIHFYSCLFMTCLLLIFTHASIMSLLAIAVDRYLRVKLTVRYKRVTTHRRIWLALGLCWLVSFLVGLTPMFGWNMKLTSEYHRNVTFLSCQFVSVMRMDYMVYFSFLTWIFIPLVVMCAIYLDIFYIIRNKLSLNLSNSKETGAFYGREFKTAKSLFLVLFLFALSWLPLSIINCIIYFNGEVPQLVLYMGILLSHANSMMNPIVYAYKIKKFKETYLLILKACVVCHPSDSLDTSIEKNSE
# Experimental: (§1) Pharmaron (Beijing) was commissioned to perform in vitro inhibition screening of hGR and A3AR.
# The four test compounds were evaluated as A3AR antagonists by A3AR-mediated cAMP production in cell-based functional assays. CHO-ADORA3 cells in which the A3AR was transfected in engineered CHO-K1 cells (PerkinElmer) to express the human A3AR were employed. The cells were collected by centrifugation and resuspended with Hank’s Buffered Saline Solution, 5 mM 4-(2-hydroxyethyl)-1-piperazineethanesulfonic acid (HEPES), 0.1% bovine serum albumin (BSA) stabilizer (pH 7.4) and 10 μM Rolipram. 2000 cells per well were added to 384 wells solid white plate. Test compounds were prepared with DMSO in 3-fold serial dilutions of 11 concentrations and dispensed to assay plates. Each compound was tested within the range of 1.69 × 10^-3–100 μM. The serial dilutions of adenosine-5′-N-ethyluronamide (NECA, 10 nl/well) was transferred to 384 wells and incubated at room temperature for 30 min. A LANCE cAMP 384 kit (Perkin Elmer, USA) was used to measure the intracellular cAMP levels. Forskolin (1 μM) was used to stimulate adenylyl cyclase activity and induce cAMP production. NECA and VUF-5574 were used as reference compounds.
# [2] = target: T2, human glucocorticoid receptor (hGR) (Homo sapiens, UniProt P04150); test: hGR reporter gene assay (GR-GAL4 chimeric receptor, antagonist mode); assay type: cell-based
# T2 construct: expressed in transfected cells; host or cells: HEK293T
# T2 sequence (P04150 524-758 limits assumed): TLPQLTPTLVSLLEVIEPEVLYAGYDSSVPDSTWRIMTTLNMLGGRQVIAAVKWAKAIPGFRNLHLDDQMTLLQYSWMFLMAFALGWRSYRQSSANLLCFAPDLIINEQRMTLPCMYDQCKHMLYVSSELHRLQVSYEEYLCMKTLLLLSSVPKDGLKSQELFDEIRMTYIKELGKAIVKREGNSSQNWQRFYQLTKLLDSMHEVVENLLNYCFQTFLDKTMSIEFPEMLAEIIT
# From the text: as §1
# The coding sequence of hGR ligand-binding domain was inserted into the pBIND expression vector (Promega, E1581) to express GR-GAL4 binding domain chimeric receptors. The expression vector and reporter vector were co-transfected into HEK293T host cells. The principle of the assay is that once the agonist binds to the corresponding GR-GAL4 chimeric receptor, the reporter gene is activated after binding of the chimeric receptor to the GAL4 binding sites. When the antagonist and agonist are in the system, the antagonist will compete with the agonist for binding to the GR-GAL4 chimeric receptor, inhibiting the reporter gene. Cyproterone was used as a positive control. All six test compounds were prepared in dimethyl sulfoxide (DMSO) at 10 mM and further diluted. Each compound was added to wells at final concentrations of 100 μM, 50 μM, 16.67 μM, 5.56 μM, 1.85 μM, 0.62 μM, 0.21 μM, 0.07 μM, 0.02 μM, 0.008 μM and 0.003 μM.
# [3] = read-out: IC50 (half-maximal inhibitory concentration)
# [4] = target GR, GR-GAL4 reporter gene assay in HEK293T cells, read-out: IC50 (half-maximal inhibitory concentration)
SMILES,"IC50 [1, 3]","IC50 [2, 4]",also measured
CC(=O)Nc1ccc(S(=O)(=O)Nc2cc(C(F)(F)F)cc(C(F)(F)F)c2)cc1 [A3-1],> 10 µM,,
NC(=O)c1nnc2cc(-c3ccccc3)nn2c1-c1ccccc1Cl [A3-2],> 10 µM,,
O/N=C/c1cn(-c2ccccc2)nc1-c1ccccc1 [A3-3],6.15 µM,,"LE value ([1]; ligand efficiency based on IC50, 20 heavy atoms): 0.36 kcal/mol"
CC1(O)CCC2C3CCC4=CC(=O)CCC4C3CCC21C (centres unmarked) [A3-4],,,IC50 ([1]; IC50 (half-maximal inhibitory concentration)): > 10 µM
CC(=O)OC1CCC2(C)C(=CCC3C2CCC2(C)C(OC(=O)c4ccccc4)CCC32)C1 (centres unmarked) [GR-1],,,IC50 [2]: 28.4 µM
C#CC1(O)CCC2C3CCc4cc(Oc5ccc([N+](=O)[O-])cc5)ccc4C3CCC21C (centres unmarked) [GR-2],,2.92 µM,
CC(=O)C1(O)CCC2C3CCC4(C)CC(=O)CCC4(C)C3C(=O)CC21C (centres unmarked) [GR-3],,27 µM,
Cc1nnc(SCC(=O)Nc2ccc(S(N)(=O)=O)cc2)c2nn(-c3ccccc3)c(C)c12 [GR-4],,23.5 µM,
O=S(=O)(Nc1cccc(-c2nc3ccccc3s2)c1)c1ccc(F)c(Cl)c1 [GR-5],,18 µM,
CC(=O)OCC(=O)C1(OC(C)=O)CCC2C3CCC4=CC(=O)C=CC4(C)C3C(=O)CC21C (centres unmarked) [GR-6],,8.6 µM,
